# Experimental data from PubChem BioAssay (NCI).
#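 Protocol summary: plate cells (96-well), add compound at 5 concentrations, incubate 48 h, interpolate endpoints linearly. GI50 is the concentration that inhibits growth by half. At the TGI there is no net growth.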
# Legend:
# Assay in all cases: growth of human tumour cells (NCI), 48 h
# OVCAR-4 ovarian = system: OVCAR-4 ovarian
# NCI-H460 lung = system: NCI-H460 lung
# ACHN renal = system: ACHN renal
# A549 NSCLC = system: A549 NSCLC
# HT29 colon = system: HT29 colon
# HOP-62 NSCLC = system: HOP-62 NSCLC
# HL-60(TB) leukemia = system: HL-60(TB) leukemia
# OVCAR-8 ovarian = system: OVCAR-8 ovarian
# PC-3 prostate = system: PC-3 prostate
# IGROV1 ovarian = system: IGROV1 ovarian
# SF-268 CNS = system: SF-268 CNS
# NCI/ADR-RES ovarian = system: NCI/ADR-RES ovarian
# MCF7 breast = system: MCF7 breast
# HS 578T breast = system: HS 578T breast
# SF-295 CNS = system: SF-295 CNS
# SK-MEL-2 melanoma = system: SK-MEL-2 melanoma
# TK-10 renal = system: TK-10 renal
# MOLT-4 leukemia = system: MOLT-4 leukemia
# COLO 205 colon = system: COLO 205 colon
# HOP-92 NSCLC = system: HOP-92 NSCLC
# EKVX NSCLC = system: EKVX NSCLC
# SW-620 colon = system: SW-620 colon
# OVCAR-3 ovarian = system: OVCAR-3 ovarian
# BT-549 breast = system: BT-549 breast
# KM12 colon = system: KM12 colon
# UO-31 renal = system: UO-31 renal
# NCI-H522 lung = system: NCI-H522 lung
# NCI-H226 lung = system: NCI-H226 lung
# A498 renal = system: A498 renal
# DU-145 prostate = system: DU-145 prostate
# MDA-MB-435 = system: MDA-MB-435
# SK-OV-3 ovarian = system: SK-OV-3 ovarian
# CAKI-1 renal = system: CAKI-1 renal
# HCC-2998 colon = system: HCC-2998 colon
# SNB-19 CNS = system: SNB-19 CNS
# T-47D breast = system: T-47D breast
# U251 CNS = system: U251 CNS
# UACC-62 melanoma = system: UACC-62 melanoma
# RPMI-8226 leukemia = system: RPMI-8226 leukemia
# OVCAR-5 ovarian = system: OVCAR-5 ovarian
# SF-539 CNS = system: SF-539 CNS
# K-562 leukemia = system: K-562 leukemia
# RXF 393 renal = system: RXF 393 renal
# LOX IMVI melanoma = system: LOX IMVI melanoma
# MALME-3M melanoma = system: MALME-3M melanoma
# MDA-MB-231 breast = system: MDA-MB-231 breast
# CCRF-CEM leukemia = system: CCRF-CEM leukemia
# HCT-15 colon = system: HCT-15 colon
# SNB-75 CNS = system: SNB-75 CNS
# UACC-257 melanoma = system: UACC-257 melanoma
# SR leukemia = system: SR leukemia
# HCT-116 colon = system: HCT-116 colon
# 786-0 renal = system: 786-0 renal
# M14 melanoma = system: M14 melanoma
# SK-MEL-5 melanoma = system: SK-MEL-5 melanoma
# SK-MEL-28 melanoma = system: SK-MEL-28 melanoma
# SN12C renal = system: SN12C renal
# NCI-H23 lung = system: NCI-H23 lung
smiles,measurement,setting,value
O=C1/C(=C/c2ccc(Cl)cc2)COc2ccc(O)cc21,GI50,OVCAR-4 ovarian,3.83 µM
same,TGI,OVCAR-4 ovarian,16.3 µM
same,GI50,NCI-H460 lung,3.32 µM
same,TGI,NCI-H460 lung,11.2 µM
same,GI50,ACHN renal,2.39 µM
same,TGI,ACHN renal,5.68 µM
same,GI50,A549 NSCLC,9.28 µM
same,TGI,A549 NSCLC,30.7 µM
same,GI50,HT29 colon,2.67 µM
same,TGI,HT29 colon,6.61 µM
same,GI50,HOP-62 NSCLC,6.31 µM
same,TGI,HOP-62 NSCLC,22.5 µM
same,GI50,HL-60(TB) leukemia,1.36 µM
same,TGI,HL-60(TB) leukemia,4.36 µM
same,GI50,OVCAR-8 ovarian,3 µM
same,TGI,OVCAR-8 ovarian,11 µM
same,GI50,PC-3 prostate,2.15 µM
same,TGI,PC-3 prostate,5.14 µM
same,GI50,IGROV1 ovarian,1.67 µM
same,TGI,IGROV1 ovarian,3.31 µM
same,GI50,SF-268 CNS,3.29 µM
same,TGI,SF-268 CNS,16.7 µM
same,GI50,NCI/ADR-RES ovarian,2.99 µM
same,TGI,NCI/ADR-RES ovarian,9.13 µM
same,GI50,MCF7 breast,1.41 µM
same,TGI,MCF7 breast,2.96 µM
same,GI50,HS 578T breast,3.22 µM
same,TGI,HS 578T breast,18.1 µM
same,GI50,SF-295 CNS,14.5 µM
same,TGI,SF-295 CNS,30 µM
same,GI50,SK-MEL-2 melanoma,12.3 µM
same,TGI,SK-MEL-2 melanoma,28.5 µM
same,GI50,TK-10 renal,3.33 µM
same,TGI,TK-10 renal,13.4 µM
same,GI50,MOLT-4 leukemia,1.84 µM
same,TGI,MOLT-4 leukemia,8.23 µM
same,GI50,COLO 205 colon,1.86 µM
same,TGI,COLO 205 colon,4.63 µM
same,GI50,HOP-92 NSCLC,8.84 µM
same,TGI,HOP-92 NSCLC,37.6 µM
same,GI50,EKVX NSCLC,7.31 µM
same,TGI,EKVX NSCLC,20.4 µM
same,GI50,SW-620 colon,1.87 µM
same,TGI,SW-620 colon,4.26 µM
same,GI50,OVCAR-3 ovarian,1.84 µM
same,TGI,OVCAR-3 ovarian,3.55 µM
same,GI50,BT-549 breast,3.34 µM
same,TGI,BT-549 breast,11.5 µM
same,GI50,KM12 colon,2.04 µM
same,TGI,KM12 colon,4.46 µM
same,GI50,UO-31 renal,1.61 µM
same,TGI,UO-31 renal,3.99 µM
same,GI50,NCI-H522 lung,1.72 µM
same,TGI,NCI-H522 lung,3.5 µM
same,GI50,NCI-H226 lung,2.68 µM
same,TGI,NCI-H226 lung,7.61 µM
same,GI50,A498 renal,13.9 µM
same,TGI,A498 renal,27.7 µM
same,GI50,DU-145 prostate,3.69 µM
same,TGI,DU-145 prostate,13 µM
same,GI50,MDA-MB-435,2.77 µM
same,TGI,MDA-MB-435,8.2 µM
same,GI50,SK-OV-3 ovarian,14 µM
same,TGI,SK-OV-3 ovarian,44.5 µM
same,GI50,CAKI-1 renal,2.02 µM
same,TGI,CAKI-1 renal,5.3 µM
same,GI50,HCC-2998 colon,1.82 µM
same,TGI,HCC-2998 colon,3.33 µM
same,GI50,SNB-19 CNS,2.16 µM
same,TGI,SNB-19 CNS,5.18 µM
same,GI50,T-47D breast,2.22 µM
same,TGI,T-47D breast,5.59 µM
same,GI50,U251 CNS,1.52 µM
same,TGI,U251 CNS,2.84 µM
same,GI50,UACC-62 melanoma,2.23 µM
same,TGI,UACC-62 melanoma,5.46 µM
same,GI50,RPMI-8226 leukemia,0.302 µM
same,TGI,RPMI-8226 leukemia,0.905 µM
same,GI50,OVCAR-5 ovarian,2.44 µM
same,TGI,OVCAR-5 ovarian,6.81 µM
same,GI50,SF-539 CNS,1.8 µM
same,TGI,SF-539 CNS,3.56 µM
same,GI50,K-562 leukemia,2.55 µM
same,TGI,K-562 leukemia,25.8 µM
same,GI50,RXF 393 renal,1.83 µM
same,TGI,RXF 393 renal,3.45 µM
same,GI50,LOX IMVI melanoma,1.74 µM
same,TGI,LOX IMVI melanoma,3.18 µM
same,GI50,MALME-3M melanoma,2.37 µM
same,TGI,MALME-3M melanoma,6.08 µM
same,GI50,MDA-MB-231 breast,2.73 µM
same,TGI,MDA-MB-231 breast,8.62 µM
same,GI50,CCRF-CEM leukemia,0.291 µM
same,TGI,CCRF-CEM leukemia,1.82 µM
same,GI50,HCT-15 colon,1.84 µM
same,TGI,HCT-15 colon,4.04 µM
same,GI50,SNB-75 CNS,12.5 µM
same,TGI,SNB-75 CNS,26.3 µM
same,GI50,UACC-257 melanoma,3.16 µM
same,TGI,UACC-257 melanoma,13 µM
same,GI50,SR leukemia,0.663 µM
same,TGI,SR leukemia,5.3 µM
same,GI50,HCT-116 colon,1.61 µM
same,TGI,HCT-116 colon,3.08 µM
same,GI50,786-0 renal,2.04 µM
same,TGI,786-0 renal,4.58 µM
same,GI50,M14 melanoma,2.33 µM
same,TGI,M14 melanoma,6.31 µM
same,GI50,SK-MEL-5 melanoma,2.32 µM
same,TGI,SK-MEL-5 melanoma,5.37 µM
same,GI50,SK-MEL-28 melanoma,2.07 µM
same,TGI,SK-MEL-28 melanoma,4.33 µM
same,GI50,SN12C renal,1.86 µM
same,TGI,SN12C renal,4.22 µM
same,GI50,NCI-H23 lung,2.21 µM
same,TGI,NCI-H23 lung,5.16 µM
